In patent US11638424B2, “Mosquito attractant formulations and uses thereof” (priority 2017, dated 2023):

Experiments:
Type in all cases: in vivo
A. gambiae sensu lato [1] = assay: Dual choice attraction bioassay (Y-tube olfactometer); conditions: added to RBCs
Protocol: Mosquitoes used in this study were from the laboratory colony of A. gambiae sensu lato (Keele line, University of Glasgow), which was produced by balanced interbreeding of four A. gambiae s.s. strains (H. Hurd, et al. Evolution, 59, 2560-2572 (2005)). Larvae were reared under standard insectary conditions (27±1° C., 70% humidity, 12 h light: 12 h dark cycle) and fed on TetraMin fish flakes (Tetra ltd., Germany). Pupae were transferred into holding cages for emergence. Emerged adults were fed ad libitum on 5% glucose solution, supplemented with 0.05% (w/v) 4-aminobenzoic acid (PABA, Sigma-Aldrich), through soaked filters on top of the 2 ml tubes and with soaked filter pads inside cages. Red blood cells (RBCs) were washed with Roswell Park Memorial Institute (RPMI) medium and stored in RPMI at 50% haematocrit at 4° C. until use. To measure the effect of HMBPP on mosquito fitness, RBCs stored in RPMI were centrifuged at 2500×g for 5 min followed by replacement of the medium with AB serum for a final haematocrit of 40%. HMBPP (stock concentration at 4 mM in Nanopure water, stored at −80° C.) was diluted to 10 μM in 1 ml RBC suspension, and the corresponding volume of Nanopure water was added to the control RBCs. All experiments were, unless otherwise stated, conducted on 5-7 days post-emergence female mosquitoes maintained in separated cages (approximately 210 individuals per cohort) and fed RBCs either with or without HMBPP for 30 min. All experiments were performed in triplicates.
Initial experiments were performed using a Y-tube olfactometer (length of the central cylinder and two arms: 25/15/15 cm respectively, inner diameter: 5 cm; see FIG. 1a). For each experiment, 180 female mosquitoes were individually placed in a release chamber and flown one by one. Females flew towards the upwind end (airflow 3 L min^−1) and entered one of two trapping chambers through which odour released from nearby membrane feeders passed (5 cm distance to each trapping chamber). Three experiments were conducted. In the first experiment, the membrane feeders were loaded with RBCs with or without HMBPP, while in the second they were loaded with serum with or without HMBPP. The third experiment was performed with a 5% glucose with 0.05% PABA solution with or without HMBPP. To control for possible spatial effects, the location of treatment at each olfactometer arm was switched every 30 minutes (˜15 mosquitoes flied one by one in each 30 minutes). Each replacement (feeder rotation with fresh RBCs) was counted as an experimental replicate (experimental block). Mosquitoes reaching any of the trapping chambers were considered to have made a choice. Each experiment was repeated six times with in total 180 mosquitoes per treatment.

A. gambiae s.l. = assay: Olfactometer bioassay (larger Y-tube olfactometer / wind tunnel assay); conditions: RBCs+CO2 vs hRBCs, FIG. 2A
Protocol: Behavioural experiments were performed using different odour sources with and without pulsed CO2 stimuli in a Plexiglas Y shaped olfactometer (9.5 cm i.d.×length of the central cylinder and two arms: 120/120/120 cm respectively), illuminated from above at 280 lx. A charcoal-filtered and humidified air stream (25±2° C., RH 65±2%) passed through stainless steel mesh screens at 30 cm s^−1 to generate a laminar flow in the olfactometer. Odors were introduced into the air stream of each arm at the downwind end. […] Odor sources consisted of either RBC-based treatments or headspace extracts. RBC-based treatments included RBCs alone, hRBCs, giRBCs or ippRBCs (RBCs supplemented with HMBPP, gametocytes or IPP), as well as RBCs with supernatants from gametocyte-infected RBCs, or RBCs supplemented with the synthetic odour blend. Headspace extracts collected from hRBCs and giRBCs were used. Treatments including RBCs were heated to 37° C. prior to being pumped (150 ml min^−1) into the airstream of each arm separately. The blend and headspace extracts were delivered to each arm via a wick dispenser. Carbon dioxide (Strandmöllen) was introduced into a plume generator that was placed behind the metal screens to create a homogenous-pulsed flow, which was regulated by a stimulus controller (SEC-2/b, Syntech, Löptin Germany). […]

A. gambiae sensu lato [2] = assay: Fosmidomycin assay (feeding on media of FR-900098-treated, IPP-rescued parasite culture); conditions: supplemented with IPP, 90 s feeding, FIG. 1D
Protocol: The fosmidomycin assay was carried out as previously described (12). 48 hours (h) after the initiation of antibiotic treatment (FR-900098, the N-acetyl analogue to fosmidomycin), asexual parasite cultures were rescued by supplementation with 200 μM IPP for 48 h of continued passaging. Media from the rescued culture were collected and offered to mosquitoes, in comparison with media from control parasites (without antibiotic treatment). Fifty mosquitoes, isolated in two separate cages, were offered different treatments. Each group was allowed to feed on its own membrane feeder for 90 s.

C/C(=C\CO)CO [(2E)-2-methylbut-2-ene-1,4-diol, reference compound]
effect on the attraction of mosquitoes to RBCs (A. gambiae sensu lato [1]): had no effect

O=C=O [carbon dioxide, reference compound]
attraction to RBCs supplemented with carbon dioxide versus hRBCs (A. gambiae s.l.): not sufficient to reproduce the full mosquito attraction to hRBCs

CC(=O)N(O)CCCP(=O)(O)O [fosmidomycin derivative]
mosquito feeding after block of HMBPP synthesis in tiRBCs (A. gambiae sensu lato [2]): reduction of feeding to control levels
